This is an account of results in patent publication US8106091B2, “Inhibitors of IKK-beta serine-threonine protein kinase” (Chroma Therapeutics Ltd., priority 2006, dated 2012).

The target of the first experiment is T1, IKBKB (IKKβ) (Homo sapiens, UniProt O14920).
T1 construct: purchased Invitrogen (Paisley, UK)
T1 sequence (O14920 1-756): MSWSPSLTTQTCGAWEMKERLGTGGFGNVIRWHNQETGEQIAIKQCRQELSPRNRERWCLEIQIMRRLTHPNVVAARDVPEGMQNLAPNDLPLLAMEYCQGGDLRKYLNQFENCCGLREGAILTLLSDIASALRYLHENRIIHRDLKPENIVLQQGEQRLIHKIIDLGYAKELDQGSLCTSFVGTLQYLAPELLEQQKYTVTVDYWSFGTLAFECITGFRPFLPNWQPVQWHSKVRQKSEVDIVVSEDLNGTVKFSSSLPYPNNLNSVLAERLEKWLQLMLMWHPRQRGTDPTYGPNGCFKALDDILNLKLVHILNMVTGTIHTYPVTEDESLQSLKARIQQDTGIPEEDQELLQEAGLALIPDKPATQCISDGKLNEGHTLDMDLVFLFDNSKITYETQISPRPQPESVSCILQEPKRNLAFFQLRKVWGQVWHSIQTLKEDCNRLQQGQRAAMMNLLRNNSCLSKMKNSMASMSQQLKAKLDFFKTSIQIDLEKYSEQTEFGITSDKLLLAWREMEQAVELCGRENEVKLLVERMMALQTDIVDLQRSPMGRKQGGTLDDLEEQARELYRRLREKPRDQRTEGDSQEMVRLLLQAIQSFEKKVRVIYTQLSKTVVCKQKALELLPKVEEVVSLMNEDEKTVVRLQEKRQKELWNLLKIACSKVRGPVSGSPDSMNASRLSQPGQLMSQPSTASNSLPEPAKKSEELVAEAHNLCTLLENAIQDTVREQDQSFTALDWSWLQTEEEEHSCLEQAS
As to the kind of experiment: IKKβ enzyme assay (Z'-LYTE, Invitrogen). It is filed as biochemical. The note with it: ATP at or close to Km; read-out: Inhibitor activity versus IKKβ. How it is done:
The ability of compounds to inhibit IKKβ kinase activity was measured in an assay performed by Invitrogen (Paisley, UK). The Z′-LYTE™ biochemical assay employs a fluorescence-based, coupled-enzyme format and is based on the differential sensitivity of phosphorylated and non-phosphorylated peptides to proteolytic cleavage. The peptide substrate is labelled with two fluorophores—one at each end—that make up a FRET pair. In the primary reaction, the kinase transfers the gamma-phosphate of ATP to a single serine or threonine residue in a synthetic FRET-peptide. In the secondary reaction, a site-specific protease recognizes and cleaves non-phosphorylated FRET-peptides. Phosphorylation of FRET-peptides suppresses cleavage by the Development Reagent. Cleavage disrupts FRET between the donor (i.e., coumarin) and acceptor (i.e. fluorescein) fluorophores on the FRET-peptide, whereas uncleaved, phosphorylated FRET-peptides maintain FRET. A […] method, which calculates the ratio (the Emission Ratio) of donor emission to acceptor emission after excitation of the donor fluorophore at 400 nm, is used to quantitate reaction progress.
The final 10 μL Kinase Reaction consists of 0.9-8.0 ng IKBKB (IKKβ), 2 μM Ser/Thr 05 Peptide and ATP in 50 mM HEPES pH 7.5, 0.01% BRIJ-35, 10 mM MgCl2, 1 mM EGTA. The assay is performed at an ATP concentration at, or close to the Km. After the 60 minute Kinase Reaction incubation at room temperature, 5 μL of a 1:128 dilution of Development Reagent is added. The assay plate is incubated for a further 60 minutes at room temperature and read on a fluorescence plate reader.
Duplicate data points are generated from a ⅓ log dilution series of a stock solution of test compound in DMSO. Nine dilutions steps are made from a top concentration of 10 μM, and a ‘no compound’ blank is included. Data is collected and analysed using XLfit software from IDBS. The dose response curve is curve fitted to model number 205 (sigmoidal dose-response model). From the curve generated, the concentration giving 50% inhibition is determined and reported.
Take `Cc1cc(OCC[C@H](N)C(=O)O)ccc1-c1cc(C(N)=O)c(NC(N)=O)s1` [Example 29, O-{4-[4-carbamoyl-5-(carbamoylamino)-2-thienyl]-3-methylphenyl}-L-homoserine]: the IC50 was < 1000 nM.

On to `NC(=O)Nc1sc(-c2ccc(COCC[C@H](N)C(=O)OC3CCCC3)cc2)cc1C(N)=O` [Example 17, Cyclopentyl O-{4-[4-carbamoyl-5-(carbamoylamino)-2-thienyl]benzyl}-L-homoserinate], for which the IC50 is < 1000 nM.

In the case of `NC(=O)Nc1cc(-c2ccc(OCC[C@H](N)C(=O)O)cc2)sc1C(N)=O` [Example 46, O-{4-[5-carbamoyl-4-(carbamoylamino)-2-thienyl]phenyl}-L-homoserine], the IC50 is < 1000 nM.

Regarding `NC(=O)Nc1sc(-c2ccc(OCC[C@@H](N)C(=O)O)cc2)cc1C(N)=O` [Example 25, O-{4-[4-Carbamoyl-5-(carbamoylamino)-2-thienyl]phenyl}-D-homoserine], the IC50 was < 1000 nM.

For the molecule `NC(=O)Nc1sc(-c2ccc(C#CC[C@H](N)C(=O)O)cc2)cc1C(N)=O` [Example 39, (2S)-2-amino-5-{4-[4-carbamoyl-5-(carbamoylamino)-2-thienyl]phenyl}pent-4-ynoic acid], the IC50 is < 1000 nM.

Consider `Cc1cc(-c2cc(C(N)=O)c(NC(N)=O)s2)ccc1/C=C/C[C@H](N)C(=O)O` [Example 38, (2S,4E)-2-amino-5-{4-[4-carbamoyl-5-(carbamoylamino)-2-thienyl]-2-methylphenyl}pent-4-enoic acid], for which the IC50 was < 1000 nM.

`NC(=O)Nc1sc(-c2ccc(OCC[C@H](N)C(=O)O)c(Cl)c2)cc1C(N)=O` [Example 32, O-{4-[4-carbamoyl-5-(carbamoylamino)-2-thienyl]-2-chlorophenyl}-L-homoserine]: the IC50 is < 1000 nM.

Regarding `NC(=O)Nc1sc(-c2ccc(/C=C/C[C@H](N)C(=O)O)cc2)cc1C(N)=O` [Example 33, (2S,4E)-2-amino-5-{4-[4-carbamoyl-5-(carbamoylamino)-2-thienyl]phenyl}pent-4-enoic acid], the IC50 is < 1000 nM.

Consider `NC(=O)Nc1sc(-c2ccc(C[C@H](N)C(=O)O)cc2)cc1C(N)=O` [Example 40, 4-[4-carbamoyl-5-(carbamoylamino)-2-thienyl]-L-phenylalanine], for which the IC50 was < 1000 nM.

As to `NC(=O)Nc1sc(-c2ccc(OCC[C@H](N)C(=O)OC3CCCC3)cc2)cc1C(N)=O` [Example 2, Cyclopentyl O-{4-[4-carbamoyl-5-(carbamoylamino)-2-thienyl]phenyl}-L-homoserinate], the IC50 was < 1000 nM.

Take `NC(=O)Nc1cc(-c2ccc(C[C@H](N)C(=O)OC3CCCC3)cc2)sc1C(N)=O` [Example 24, Cyclopentyl 4-[5-carbamoyl-4-(carbamoylamino)-2-thienyl]-L-phenylalaninate]: the IC50 was < 1000 nM.

As to `Cc1cc(-c2cc(C(N)=O)c(NC(N)=O)s2)ccc1OCC[C@H](N)C(=O)O` [Example 30, O-{4-[4-carbamoyl-5-(carbamoylamino)-2-thienyl]-2-methylphenyl}-L-homoserine], the IC50 was < 1000 nM.

On to `NC(=O)Nc1sc(-c2ccc(OCCC[C@@H](N)C(=O)OC3CCCC3)cc2)cc1C(N)=O` [Example 4, Cyclopentyl 5-{4-[4-carbamoyl-5-(carbamoylamino)-2-thienyl]phenoxy}-D-norvalinate], for which the IC50 is < 1000 nM.

Regarding `NC(=O)Nc1sc(-c2ccc(CCC[C@@H](N)C(=O)OC3CCCC3)cc2)cc1C(N)=O` [Example 12, Cyclopentyl 5-{4-[4-carbamoyl-5-(carbamoylamino)-2-thienyl]phenyl}-D-norvalinate], the IC50 is < 1000 nM.

Turning to `NC(=O)Nc1sc(-c2ccc(OCC[C@H](N)C(=O)O)cc2Cl)cc1C(N)=O` [Example 31, O-{4-[4-carbamoyl-5-(carbamoylamino)-2-thienyl]-3-chlorophenyl}-L-homoserine], the IC50 was < 1000 nM.

With `NC(=O)Nc1sc(-c2ccc(/C=C/C[C@H](N)C(=O)O)cc2Cl)cc1C(N)=O` [Example 37, (2S,4E)-2-amino-5-{4-[4-carbamoyl-5-(carbamoylamino)-2-thienyl]-3-chlorophenyl}pent-4-enoic acid], the IC50 was < 1000 nM.

Regarding `NC(=O)Nc1sc(-c2ccc(OCC[C@H](NC3CCCCC3)C(=O)O)cc2)cc1C(N)=O` [Example 43, O-{4-[4-carbamoyl-5-(carbamoylamino)thiophen-2-yl]phenyl}-N-cyclohexyl-L-homoserine], the IC50 is < 1000 nM.

`NC(=O)Nc1sc(-c2ccc(/C=C\C[C@H](N)C(=O)O)cc2)cc1C(N)=O` [Example 42, (2S,4Z)-2-amino-5-{4-[4-carbamoyl-5-(carbamoylamino)-2-thienyl]phenyl}pent-4-enoic acid]: the IC50 is < 1000 nM.

In the case of `NC(=O)Nc1sc(-c2ccc(CCC[C@@H](N)C(=O)O)cc2)cc1C(N)=O` [Example 36, 5-{4-[4-carbamoyl-5-(carbamoylamino)-2-thienyl]phenyl}-D-norvaline], the IC50 is < 1000 nM.

As to `NC(=O)Nc1sc(-c2ccc(OCCC[C@H](N)C(=O)O)cc2)cc1C(N)=O` [Example 27, 5-{4-[4-carbamoyl-5-(carbamoylamino)-2-thienyl]phenoxy}-L-norvaline], the IC50 was < 1000 nM.

`NC(=O)Nc1sc(-c2ccc(COCC[C@H](N)C(=O)O)cc2)cc1C(N)=O` [Example 41, O-{4-[4-carbamoyl-5-(carbamoylamino)-2-thienyl]benzyl}-L-homoserine]: the IC50 was < 1000 nM.

`NC(=O)Nc1sc(-c2ccc(OCCC[C@@H](N)C(=O)O)cc2)cc1C(N)=O` [Example 28, 5-{4-[4-carbamoyl-5-(carbamoylamino)-2-thienyl]phenoxy}-D-norvaline]: the IC50 was < 1000 nM.

With `NC(=O)Nc1sc(-c2ccc(N(CC[C@H](N)C(=O)O)Cc3ccccc3)cc2)cc1C(N)=O` [Example 45, (2S)-2-amino-4-(benzyl{4-[4-carbamoyl-5-(carbamoylamino)thiophen-2-yl]phenyl}amino)butanoic acid], the IC50 is < 1000 nM.

As to `NC(=O)Nc1cc(-c2ccc(C[C@H](N)C(=O)O)cc2)sc1C(N)=O` [Example 47, 4-[5-carbamoyl-4-(carbamoylamino)2-thienyl]-L-phenylalanine], the IC50 was < 1000 nM.

Consider `NC(=O)Nc1sc(-c2ccc(/C=C/C[C@@H](N)C(=O)O)cc2)cc1C(N)=O` [Example 34, (2R,4E)-2-amino-5-{4-[4-carbamoyl-5-(carbamoylamino)-2-thienyl]phenyl}pent-4-enoic acid], for which the IC50 was < 1000 nM.

Regarding `NC(=O)Nc1sc(-c2ccc(/C=C/C[C@@H](NC3CCCCC3)C(=O)O)cc2)cc1C(N)=O` [Example 44, (2R,4E)-5-{4-[4-carbamoyl-5-(carbamoylamino)thiophen-2-yl]phenyl}-2-(cyclohexylamino)pent-4-enoic acid], the IC50 was < 1000 nM.

As for `NC(=O)Nc1sc(-c2ccc(CCC[C@H](N)C(=O)O)cc2)cc1C(N)=O` [Example 35, 5-{4-[4-carbamoyl-5-(carbamoylamino)-2-thienyl]phenyl}-L-norvaline], the IC50 was < 1000 nM.

The next experiment concerns THP-1 cells. As to the kind of experiment: LPS-stimulation of THP-1 cells, TNF-α release. It is filed as cell-based. Conditions: Homo sapiens, LPS 1 μg/ml, 6 hrs, inhibitor added 2 hrs before, read-out: Inhibitor activity versus THP-1 TNFα release. The protocol: LPS-Stimulation of THP-1 Cells
THP-1 cells were plated in 100 μl at a density of 4×10^4 cells/well in V-bottomed 96 well tissue culture treated plates and incubated at 37° C. in 5% CO2 for 16 hrs. 2 hrs after the addition of the inhibitor in 100 μl of tissue culture media, the cells were stimulated with LPS (E coli strain 005:B5, Sigma) at a final concentration of 1 μg/ml and incubated at 37° C. in 5% CO2 for 6 hrs. TNF-α levels were measured from cell-free supernatants by sandwich ELISA (R&D Systems #QTA00B)
Regarding `NC(=O)Nc1sc(-c2ccc(COCC[C@H](N)C(=O)OC3CCCC3)cc2)cc1C(N)=O` [Example 17, Cyclopentyl O-{4-[4-carbamoyl-5-(carbamoylamino)-2-thienyl]benzyl}-L-homoserinate], the IC50 lay within 1000 to 5000 nM.

On to `NC(=O)Nc1sc(-c2ccc(OCC[C@H](N)C(=O)OC3CCCC3)cc2)cc1C(N)=O` [Example 2, Cyclopentyl O-{4-[4-carbamoyl-5-(carbamoylamino)-2-thienyl]phenyl}-L-homoserinate], for which the IC50 lay in the range of 1000 to 5000 nM.

As to `NC(=O)Nc1cc(-c2ccc(C[C@H](N)C(=O)OC3CCCC3)cc2)sc1C(N)=O` [Example 24, Cyclopentyl 4-[5-carbamoyl-4-(carbamoylamino)-2-thienyl]-L-phenylalaninate], the IC50 was > 5000 nM.

For `NC(=O)Nc1sc(-c2ccc(OCCC[C@@H](N)C(=O)OC3CCCC3)cc2)cc1C(N)=O` [Example 4, Cyclopentyl 5-{4-[4-carbamoyl-5-(carbamoylamino)-2-thienyl]phenoxy}-D-norvalinate], the IC50 fell in the range of 1000 to 5000 nM.

For `NC(=O)Nc1sc(-c2ccc(CCC[C@@H](N)C(=O)OC3CCCC3)cc2)cc1C(N)=O` [Example 12, Cyclopentyl 5-{4-[4-carbamoyl-5-(carbamoylamino)-2-thienyl]phenyl}-D-norvalinate], the IC50 was < 1000 nM.
